From PubChem BioAssay AID540252 (Sanford-Burnham Center for Chemical Genomics, 2011) come the findings set out here.

Active and inactive are the calls of the source. The rule behind the calls is not given here. Where only a bound is given, the exact number is not on record here.

The experiment deals with glucose-6-phosphate dehydrogenase-6-phosphogluconolactonase (Plasmodium falciparum 3D7). As to the kind of experiment: PfG6PD enzyme inhibitors, direct NADPH readout, dose response, orthogonal assay, biochemical, end-point NADPH detection (AID 540252). The settings on record: purified PfG6PD enzyme.
As for `CCOC(=O)c1ccc(/[N+]([O-])=C/c2ccccc2)cc1`, the IC50 (usually the point on the concentration scale where inhibition reaches its midpoint) was > 80 µM (inactive).
For the compound `CCOc1ccc2ccccc2c1/C=N/NC(=O)c1ccncc1`, the IC50 was > 80 µM (inactive).
`CCc1nnc(NC(=O)c2ccc(Cl)nc2)s1`: the IC50 was > 80 µM (inactive).
To `COc1cccc(C=Nc2cc(C(C)C)c(O)cc2C)c1O` belongs > 80 µM (inactive); to `O=[N+]([O-])c1c(NCCO)cc(Sc2nc3ccccc3s2)c2nonc12`, > 80 µM (inactive); to `CN1C(=O)CSc2ccc(NC(=O)N3CCc4ccccc43)cc21`, > 80 µM (inactive).
The result for `Cc1ccc(-c2nn(C)c(=O)c3ccccc23)cc1CNC(=O)/C=C/c1ccccc1` reads > 80 µM (inactive); that for `Cc1c(N=C2C=C(Br)C(=O)C(Br)=C2)c(=O)n(-c2ccccc2)n1C`, > 80 µM (inactive).
The result for `CCCN1CCc2cc(O)cc3c2[C@H]1Cc1ccc(O)c(O)c1-3` reads > 80 µM (inactive); that for `CC(C)c1nnc(NC(=O)c2cccc(-n3cnnn3)c2)s1`, > 80 µM (inactive); that for `COC(=O)[C@H](CCSC)NC(=O)c1cc2c(cn1)[nH]c1ccccc12`, > 80 µM (inactive).
For `CCOC(=O)c1c(C)n(-c2ccc(C)cc2)c2c(C(C(C)=O)C(=O)O)c(Br)c(O)c(O)c12` (stereo not drawn), the IC50 was > 80 µM (inactive).
As to `COc1ccc(C(=O)ON=C2C=C(C)C(=O)C(C)=C2)cc1`, the IC50 was > 80 µM (inactive).
Take `O=C1C=CC(=O)N1c1ccc2c(c1)C(NC(=O)C(F)(F)F)c1ccccc1-2` (stereo not drawn): the half-inhibitory concentration (IC50) is 20 µM.
For `CCC(=O)OCOc1ccc(/C=C2/CCC(CN(C)C)C2=O)cc1` (stereo not drawn), the IC50 was > 80 µM (inactive).
On to `O=C1Nc2cc(C(=O)NCCCN3CCCC3)ccc2S/C1=C\c1ccccc1`, for which the IC50 was > 80 µM (inactive).
For the compound `CC1COCC(C)N1C1=C(Cl)C(=O)c2ccccc2C1=O` (stereo not drawn), the IC50 is > 80 µM (inactive).
The result for `Cc1c(Cl)c([N+](=O)[O-])nn1Cc1ccc(C(=O)N/N=C\c2cccc(Br)c2)o1` reads > 80 µM (inactive); that for `CN1CCc2cc(O)cc3c2[C@H]1Cc1ccc(O)c(O)c1-3`, > 80 µM (inactive).
As for `Nn1c(CSc2nc3ccccc3o2)nnc1CSc1nc2ccccc2o1`, the IC50 is > 80 µM (inactive).
On to `O=C1C(=Cc2cccc(O)c2O)SC(=S)N1CCCN1CCOCC1`, for which the IC50 was 44.3 µM.
Turning to `O=C(CNC(=O)c1cccs1)NCC(=O)OCC(=O)c1ccc([N+](=O)[O-])cc1`, the IC50 was 67.9 µM.
To `O=[N+]([O-])c1ccc2c(c1)-c1ccccc1C2O` (stereo not drawn) belongs 23.8 µM; to `Cc1cc(C)c2c(=O)n(CC(=O)Nc3ccc(Cl)cc3)sc2n1`, > 80 µM (inactive).
The result for `Cn1c(=O)[nH]c(=O)c2c1[nH]c(=S)n2CCCc1ccccc1` reads 66.1 µM; that for `CC(NC(=O)c1sc2cc([N+](=O)[O-])ccc2c1Cl)C(C)(C)C` (stereo not drawn), > 80 µM (inactive); that for `CCCn1cc(S(=O)(=O)CC(=O)Nc2ccc(OC)cc2OC)c2ccccc21`, > 80 µM (inactive).
Consider `CCOC(=O)Nc1ccc(NCc2ccc(F)cc2)nc1N`, for which the IC50 is > 80 µM (inactive).
With `COc1cc(-c2cc(=O)c3c(O)c(OC)c(OC)c(O)c3o2)ccc1O`, the IC50 is > 80 µM (inactive).
Take `COc1cc(N=c2ssnc2Cl)cc(OC)c1OC`: the IC50 was 54 µM.
On to `CC(=O)OCC1(C)CN(c2ccccc2)NC1=O` (stereo not drawn), for which the IC50 was > 80 µM (inactive).
As to `COc1ccc(NS(=O)(=O)c2ccc(N3CCCC3)c(NC(=S)Nc3cccc(C)c3C)c2)cc1`, the IC50 is > 80 µM (inactive).
The result for `Cc1ccc(C)c(-n2sc3ccc(F)cc3c2=O)c1` reads 10.5 µM.
Regarding `COc1cc(NCc2ccccc2)c2ncn(Cc3ccccc3)c2c1`, the IC50 was > 80 µM (inactive).
`COCCNC(=S)Nc1ccc(N2CCOCC2)c(S(=O)(=O)Nc2ccc(Cl)cc2)c1`: the IC50 is > 80 µM (inactive).
The result for `O=C1NC(=S)NC(=O)C1=Cc1ccc(Br)s1` reads > 80 µM (inactive).
In the case of `O=C1CCN(c2ccccc2)N1`, the IC50 is > 80 µM (inactive).
The result for `NC1CCc2cc(O)c(O)cc2C1` (stereo not drawn) reads 27.5 µM; that for `CCOc1ccc(S(=O)(=O)Nc2cc(SCC(=O)O)c(O)c3ccccc23)cc1`, > 80 µM (inactive).
Consider `Cc1ccc(S(=O)(=O)Oc2cccc(/C=N/Nc3ccc(C(=O)O)cc3)c2)cc1`, for which the IC50 was > 80 µM (inactive).
`O=c1[nH]c2ccccc2n2c(-c3ccccc3)nnc12`: the IC50 was > 80 µM (inactive).
Turning to `COC(=O)CCC(=O)OC1(C)C(=O)C2=CN(C3CC3)C(c3ccc(OC)cc3)=CC2=C(Br)C1=O` (stereo not drawn), the IC50 is > 80 µM (inactive).
The result for `COc1ccc(CCn2c(NN=C3CCCC3)nc3c2c(=O)[nH]c(=O)n3C)cc1` reads > 80 µM (inactive); that for `Cc1cccc(C(=O)Nc2nnc(S(=O)(=O)N3CCOCC3)s2)c1`, > 80 µM (inactive).
The result for `COc1cc(N)c2ncccc2c1OC` reads > 80 µM (inactive).
In the case of `COc1cc(OC)c(C2CC(=O)N3CN(c4ccccc4)CSC3=C2C#N)cc1OC` (stereo not drawn), the IC50 was > 80 µM (inactive).
To `CCOC(=O)c1ccc(-n2c(N)c(C(=O)NCC3CCCO3)sc2=S)cc1` (stereo not drawn) belongs > 80 µM (inactive); to `O=C1/C(=C\c2ccc([N+](=O)[O-])cc2)CS(=O)(=O)C/C1=C/c1ccc([N+](=O)[O-])cc1`, > 80 µM (inactive); to `Cc1ccc(Cl)cc1NC1=C/C(=N\S(=O)(=O)c2cccs2)c2ccccc2C1=O`, > 80 µM (inactive).
To `Nc1cc(N)c(OCC(F)(F)F)cc1OCC(F)(F)F` belongs > 80 µM (inactive).
As to `Cc1nc2ccc(Nc3nc4cc(S(=O)(=O)N5CCOCC5)ccc4o3)cc2s1`, the IC50 is > 80 µM (inactive).
To `COC(=O)c1cc2c(n1S(=O)(=O)c1ccc(C)cc1)C(=O)C(=O)c1[nH]cc(C(=O)OCc3ccccc3)c1-2` belongs > 80 µM (inactive); to `CC(=O)Nc1ccc2c(c1)Cc1cc(N3C(=O)C=CC3=O)ccc1-2`, 23.7 µM; to `Cc1ccc(-c2csc(NC(=O)c3ccc(Br)cc3)c2C(=O)O)cc1`, > 80 µM (inactive).
On to `NS(=O)(=O)c1ccc(N/N=C/c2ccc(O)c(O)c2O)c([N+](=O)[O-])c1`, for which the IC50 was 36.3 µM.
To `Cc1ccc(NC2=C(NC(=O)c3ccccc3)C(=O)c3ccccc3C2=O)cc1Cl` belongs > 80 µM (inactive).
For the compound `COC(=O)CCC(=O)OC1(C)C(=O)C2=CN(c3ccccc3)C(c3ccc(OC)cc3)=CC2=C(Br)C1=O` (stereo not drawn), the IC50 was > 80 µM (inactive).
On to `CN(C)c1ccc(C=c2c3ccccc3n3c2c2ccccc2[n+]3C)cc1`, for which the IC50 is > 80 µM (inactive).
Turning to `CC1CCc2[nH]c3ccc(C(=O)N(C)CC(=O)Nc4ccccc4C(F)(F)F)cc3c2C1` (stereo not drawn), the IC50 was > 80 µM (inactive).
`O=C(CNC(=O)c1ccccc1)NCC(=O)OCC(=O)c1ccc([N+](=O)[O-])cc1`: the concentration for half-maximal inhibition (IC50) was 59.6 µM.
Regarding `Cc1cc(C)c2c(=O)n(CC(=O)Nc3cccc(Cl)c3C)sc2n1`, the IC50 was > 80 µM (inactive).
To `CCc1cc(-c2n[nH]c(C)c2-c2nc3ccccc3n2C)c(O)cc1O` belongs > 80 µM (inactive); to `[O-][N+](=Cc1ccccc1)c1ccc(Cl)cc1`, > 80 µM (inactive).
